In US5547962A, “5-amino-8-methyl-7-pyrrolidinylquinoline-3-carboxylic acid derivative” (priority 1993, dated 1996):
≈ marks a conversion by molar mass, not a printed value. Where two headings read alike, the source gives them in different places.

How the values were obtained:
S. marcescens HNR1767 = assay: Antibacterial activity, MIC by agar dilution; format: cell-based; conditions: Serratia marcescens, clinically isolated strain, gram -
From the text: (§1) The strains employed were as follows:
(§2) Serratia marcescens (S. marcescens)

S. marcescens HNR1544 = assay: Antibacterial activity, MIC by agar dilution; format: cell-based; conditions: Serratia marcescens, clinically isolated strain, gram -
From the text: as §1, §2

S. marcescens HNR1792 = assay: Antibacterial activity, MIC by agar dilution; format: cell-based; conditions: Serratia marcescens, clinically isolated strain, gram -
From the text: as §1, §2

S. marcescens IAM 1184 = assay: Antibacterial activity, MIC by agar dilution; format: cell-based; conditions: Serratia marcescens, IAM1184; laboratory standard strain, gram -
From the text: as §1, §2

K. pneumoniae HNR869 = assay: Antibacterial activity, MIC by agar dilution; format: cell-based; conditions: Klebsiella pneumoniae, clinically isolated strain, gram -
From the text: as §1
(§3) Klebsiella pneumoniae (K. pneumoniae)

K. pneumoniae PCI-602 = assay: Antibacterial activity, MIC by agar dilution; format: cell-based; conditions: Klebsiella pneumoniae, PCI602; laboratory standard strain, gram -
From the text: as §1, §3

K. pneumoniae HNR858 = assay: Antibacterial activity, MIC by agar dilution; format: cell-based; conditions: Klebsiella pneumoniae, clinically isolated strain, gram -
From the text: as §1, §3

K. pneumoniae HNR828 = assay: Antibacterial activity, MIC by agar dilution; format: cell-based; conditions: Klebsiella pneumoniae, clinically isolated strain, gram -
From the text: as §1, §3

E. coli NIHJ JC-2 = assay: Antibacterial activity, MIC by agar dilution; format: cell-based; conditions: Escherichia coli, NIHJJC2; laboratory standard strain, gram -
From the text: as §1
Escherichia coli (E. coli)

A. calcoaceticus HNR904 = assay: Antibacterial activity, MIC by agar dilution; format: cell-based; conditions: Acinetobacter calcoaceticus, clinically isolated strain, gram -
From the text: as §1
(§4) Acinetobacter calcoaceticus (A. calcoaceticus)

A. calcoaceticus HNR939 = assay: Antibacterial activity, MIC by agar dilution; format: cell-based; conditions: Acinetobacter calcoaceticus, clinically isolated strain, gram -
From the text: as §1, §4

A. calcoaceticus HNR916 = assay: Antibacterial activity, MIC by agar dilution; format: cell-based; conditions: Acinetobacter calcoaceticus, clinically isolated strain, gram -
From the text: as §1, §4

Male Hartley guinea pigs = format: in vivo; conditions: 10 mg/kg i.v.; for Phototoxicity: number of animals with erythemas/number of animals tested: UVA 90 minutes, 24 h after irradiation; for phototoxicity, in words: UVA
Method: Male Hartley guinea pigs were intravenously administered test compounds at a dose of 10 mg/kg, and immediately exposed to UVA on their backs for 90 minutes.

S. aureus HPC308 = assay: Antibacterial activity, MIC by agar dilution; format: cell-based; conditions: Staphylococcus aureus, clinically isolated strain, gram +
From the text: as §1
(§5) Staphylococcus aureus (S. aureus)

S. aureus HPC292 = assay: Antibacterial activity, MIC by agar dilution; format: cell-based; conditions: Staphylococcus aureus, clinically isolated strain, gram +
From the text: as §1, §5

S. aureus HPC527 = assay: Antibacterial activity, MIC by agar dilution; format: cell-based; conditions: Staphylococcus aureus, clinically isolated strain, gram +
From the text: as §1, §5

S. aureus FDA 209P JC-1 = assay: Antibacterial activity, MIC by agar dilution; format: cell-based; conditions: Staphylococcus aureus, FDA209P; laboratory standard strain, gram +
From the text: as §1, §5

E. cloacae HNR1941 = assay: Antibacterial activity, MIC by agar dilution; format: cell-based; conditions: Enterobacter cloacae, clinically isolated strain, gram -
From the text: as §1
(§6) Enterobacter cloacae (E. cloacae)

E. cloacae 963 = assay: Antibacterial activity, MIC by agar dilution; format: cell-based; conditions: Enterobacter cloacae, laboratory standard strain, gram -
From the text: as §1, §6

E. cloacae HNR1939 = assay: Antibacterial activity, MIC by agar dilution; format: cell-based; conditions: Enterobacter cloacae, clinically isolated strain, gram -
From the text: as §1, §6

E. cloacae HNR1946 = assay: Antibacterial activity, MIC by agar dilution; format: cell-based; conditions: Enterobacter cloacae, clinically isolated strain, gram -
From the text: as §1, §6

E. faecalis HPC984 = assay: Antibacterial activity, MIC by agar dilution; format: cell-based; conditions: Enterococcus faecalis, clinically isolated strain, gram +
From the text: as §1
(§7) Enterococcus faecalis (E. faecalis)

E. faecalis HPC948 = assay: Antibacterial activity, MIC by agar dilution; format: cell-based; conditions: Enterococcus faecalis, clinically isolated strain, gram +
From the text: as §1, §7

E. faecalis HPC975 = assay: Antibacterial activity, MIC by agar dilution; format: cell-based; conditions: Enterococcus faecalis, clinically isolated strain, gram +
From the text: as §1, §7

[1] = system: polychromatic erythrocytes (PCEs); assay: Micronucleus test, bone marrow of mice; format: in vivo, BDF 1 mice; conditions: percent of the number of MNPCEs per 1,000 PCEs; 250 mg/kg i.p., 24 h
Method: Nine-week-old male BDF 1 mice were used in this test. The test compounds were injected intraperitoneally with a dose of 250 mg/kg. After 24 h mice were sacrificed and the bone marrow of the femur was collected. Bone marrow smears were fixed on the slides with methanol and stained with Giemsa according to the usual method. For each animal, the number of micronucleated polychromatic erythrocytes (MNPCEs) per 1,000 polychromatic erythrocytes (PCEs) was counted under the microscope. Cyclophosphamide was used as a positive control.

CHL cells = assay: Chromosomal aberration test with a Chinese hamster lung cell line (CHL); format: cell-based; conditions: for Chromosomal aberration: CHL cells
Method: The chromosomal aberration test was conducted with a Chinese hamster lung cell line (CHL). 2-(2-Furyl)-3-(5-nitro-2-furyl)acrylamide was used as a positive control. Cells treated with the test compounds were cultured for 6 h at 37° C. in 5% CO2 -humidified air. Following the 6 h treatment the cells were washed. Fresh medium was added to the washed cells and they were cultured for a further 18 h. Colcemide was added to the cultures 2 h before the fixation of chromosome preparation, in order to collect metaphase cells.

male ICR mice = assay: Convulsions, intraperitoneal (i.p.) administration with fenbufen; conditions: 100 mg/kg i.p., fenbufen 100 mg/kg orally
Method: Thirty minutes later, they were injected intraperitoneally with the test compounds at a dose of 100 mg/kg. Thereafter, the onset of convulsions was recorded.

Cc1c(N2C[C@@H](N)[C@@H](C)C2)c(F)c(N)c2c(=O)c(C(=O)O)cn(C3CC3)c12 (relative stereo) [Example 14, 5-Amino-7-(cis-3-amino-4-methyl-1-pyrrolidinyl)-1-cyclopropyl-6-fluoro-1,4-dihydro-8-methyl-4-oxoquinoline-3-carboxylic acid]
MIC (S. marcescens HNR1767): 6.25 µg/mL (≈ 16.7 µM)
MIC (S. marcescens HNR1544): 0.05 µg/mL (≈ 0.134 µM)
MIC (S. marcescens HNR1792): 3.13 µg/mL (≈ 8.36 µM)
MIC (S. marcescens IAM 1184): 0.2 µg/mL (≈ 0.534 µM)
MIC (K. pneumoniae HNR869): 1.56 µg/mL (≈ 4.17 µM)
MIC (K. pneumoniae PCI-602): 0.006 µg/mL (≈ 0.016 µM)
MIC (K. pneumoniae HNR858): 0.2 µg/mL (≈ 0.534 µM)
MIC (K. pneumoniae HNR828): 3.13 µg/mL (≈ 8.36 µM)
MIC (E. coli NIHJ JC-2): 0.012 µg/mL (≈ 0.032 µM)
MIC (A. calcoaceticus HNR904): 3.13 µg/mL (≈ 8.36 µM)
MIC (A. calcoaceticus HNR939): 0.2 µg/mL (≈ 0.534 µM)
MIC (A. calcoaceticus HNR916): 0.025 µg/mL (≈ 0.0668 µM)
Phototoxicity: number of animals with erythemas/number of animals tested (Male Hartley guinea pigs): 0/5
MIC (S. aureus HPC308): 0.39 µg/mL
MIC (S. aureus HPC292): 1.56 µg/mL
MIC (S. aureus HPC527): 0.012 µg/mL
MIC (S. aureus FDA 209P JC-1): 0.012 µg/mL
MIC (E. cloacae HNR1941): 6.25 µg/mL (≈ 16.7 µM)
MIC (E. cloacae 963): 0.05 µg/mL (≈ 0.134 µM)
MIC (E. cloacae HNR1939): 0.2 µg/mL (≈ 0.534 µM)
MIC (E. cloacae HNR1946): 0.2 µg/mL (≈ 0.534 µM)
MIC (E. faecalis HPC984): 0.2 µg/mL
MIC (E. faecalis HPC948): 0.39 µg/mL
MIC (E. faecalis HPC975): 1.56 µg/mL

O=P1(N(CCCl)CCCl)NCCCO1 (stereo not shown) [Cyclophosphamide, reference compound]
Incidence of MNPCEs [1]: 2.9%

Cc1c(N2C[C@@H](N)C(C)(C)C2)c(F)c(N)c2c(=O)c(C(=O)O)cn(C3CC3)c12 [Example 16, 5-Amino-7-((S)-3-amino-4,4-dimethyl-1-pyrrolidinyl)-1-cyclopropyl-6-fluoro-1,4-dihydro-8-methyl-4-oxoquinoline-3-carboxylic acid]
MIC (S. marcescens HNR1767): 25 µg/mL (≈ 64.4 µM)
MIC (S. marcescens HNR1544): 0.1 µg/mL (≈ 0.257 µM)
MIC (S. marcescens HNR1792): 6.25 µg/mL (≈ 16.1 µM)
MIC (S. marcescens IAM 1184): 0.39 µg/mL (≈ 1 µM)
MIC (K. pneumoniae HNR869): 3.13 µg/mL (≈ 8.06 µM)
MIC (K. pneumoniae PCI-602): 0.003 µg/mL (≈ 0.00772 µM)
MIC (K. pneumoniae HNR858): 0.39 µg/mL (≈ 1 µM)
MIC (K. pneumoniae HNR828): 12.5 µg/mL (≈ 32.2 µM)
MIC (E. coli NIHJ JC-2): 0.05 µg/mL (≈ 0.129 µM)
MIC (A. calcoaceticus HNR904): 6.25 µg/mL (≈ 16.1 µM)
MIC (A. calcoaceticus HNR939): 0.39 µg/mL (≈ 1 µM)
MIC (A. calcoaceticus HNR916): 0.025 µg/mL (≈ 0.0644 µM)
MIC (S. aureus HPC308): 0.39 µg/mL
MIC (S. aureus HPC292): 1.56 µg/mL
MIC (S. aureus HPC527): 0.025 µg/mL
MIC (S. aureus FDA 209P JC-1): 0.025 µg/mL
MIC (E. cloacae HNR1941): 12.5 µg/mL (≈ 32.2 µM)
MIC (E. cloacae 963): 0.05 µg/mL (≈ 0.129 µM)
MIC (E. cloacae HNR1939): 0.39 µg/mL (≈ 1 µM)
MIC (E. cloacae HNR1946): 0.39 µg/mL (≈ 1 µM)
MIC (E. faecalis HPC984): 0.2 µg/mL
MIC (E. faecalis HPC948): 0.39 µg/mL
MIC (E. faecalis HPC975): 1.56 µg/mL

Cc1c(N2CCC(C)(N)C2)c(F)c(N)c2c(=O)c(C(=O)O)cn(C3CC3)c12 (stereo not shown) [Example 18, 5-Amino-7-(3-amino-3-methyl-1-pyrrolidinyl)-1-cyclopropyl-6-fluoro-1,4-dihydro-8-methyl-4-oxoquinoline-3-carboxylic acid]
MIC (S. marcescens HNR1767): 25 µg/mL (≈ 66.8 µM)
MIC (S. marcescens HNR1544): 0.1 µg/mL (≈ 0.267 µM)
MIC (S. marcescens HNR1792): 3.13 µg/mL (≈ 8.36 µM)
MIC (S. marcescens IAM 1184): 0.2 µg/mL (≈ 0.534 µM)
MIC (K. pneumoniae HNR869): 3.13 µg/mL (≈ 8.36 µM)
MIC (K. pneumoniae PCI-602): 0.006 µg/mL (≈ 0.016 µM)
MIC (K. pneumoniae HNR858): 0.39 µg/mL (≈ 1.04 µM)
MIC (K. pneumoniae HNR828): 6.25 µg/mL (≈ 16.7 µM)
MIC (E. coli NIHJ JC-2): 0.025 µg/mL (≈ 0.0668 µM)
MIC (A. calcoaceticus HNR904): 12.5 µg/mL (≈ 33.4 µM)
MIC (A. calcoaceticus HNR939): 0.78 µg/mL (≈ 2.08 µM)
MIC (A. calcoaceticus HNR916): 0.05 µg/mL (≈ 0.134 µM)
MIC (S. aureus HPC308): 0.78 µg/mL
MIC (S. aureus HPC292): 6.25 µg/mL
MIC (S. aureus HPC527): 0.05 µg/mL
MIC (S. aureus FDA 209P JC-1): 0.025 µg/mL
MIC (E. cloacae HNR1941): 12.5 µg/mL (≈ 33.4 µM)
MIC (E. cloacae 963): 0.05 µg/mL (≈ 0.134 µM)
MIC (E. cloacae HNR1939): 0.39 µg/mL (≈ 1.04 µM)
MIC (E. cloacae HNR1946): 0.39 µg/mL (≈ 1.04 µM)
MIC (E. faecalis HPC984): 0.2 µg/mL
MIC (E. faecalis HPC948): 0.78 µg/mL
MIC (E. faecalis HPC975): 3.13 µg/mL

Cl.Nc1c(F)c(N2C[C@@H](N)C3(CC3)C2)cc2c1c(=O)c(C(=O)O)cn2C1CC1 [Reference Compound B, 5-amino-7-((S)-7-amino-5-azaspiro[2.4]hept-5-yl)-1-cyclopropyl-6-fluoro-1,4-dihydro-4-oxoquinoline-3-carboxylic acid hydrochloride]
Chromosomal aberration (CHL cells; Table 1, 3 μg/ml): + (10-20%)
Chromosomal aberration (CHL cells; Table 2, 3 μg/ml): + (10-20%)
Chromosomal aberration (CHL cells; Table 3, 3 μg/ml): + (10-20%)
Chromosomal aberration (CHL cells; Table 7, 3 μg/ml): + (10-20%)
toxicity (chromosomal aberration), in words (CHL cells; comparison to Tables 7 and 8): observed
death of CHL cells (CHL cells; treatment with 100 μg/ml): all cells died
Convulsions i.p.: number of animals with convulsions/number of animals tested (male ICR mice): 0/6
phototoxicity, in words (Male Hartley guinea pigs): observed
Phototoxicity: number of animals with erythemas/number of animals tested (Male Hartley guinea pigs): 3/5

N[C@H]1CCN(c2cc3c(cc2F)c(=O)c(C(=O)O)cn3C2CC2)C1 [Reference Compound D, 7-((S)-3-amino-1-pyrrolidinyl)-1-cyclopropyl-6-fluoro-1,4-dihydro-4-oxoquinoline-3-carboxylic acid]
Chromosomal aberration (CHL cells; Table 1, 100 μg/ml): - (<10%)
Chromosomal aberration (CHL cells; Table 2, 100 μg/ml): - (<10%)

Nc1c(F)c(N2CC[C@H](N)C2)cc2c1c(=O)c(C(=O)O)cn2C1CC1 [Reference Compound E, 5-amino-7-((S)-3-amino-1-pyrrolidinyl)-1-cyclopropyl-6-fluoro-1,4-dihydro-4-oxoquinoline-3-carboxylic acid]
toxicity (chromosomal aberration), in words (CHL cells): observed
phototoxicity, in words (Male Hartley guinea pigs): no phototoxicity
death of guinea pigs (Male Hartley guinea pigs; phototoxicity test): death of two guinea pigs out of five

Cc1c(N2CC[C@H](N)C2)c(F)cc2c(=O)c(C(=O)O)cn(C3CC3)c12 [Reference Compound F, 7-((S)-3-amino-1-pyrrolidinyl)-1-cyclopropyl-6-fluoro-1,4-dihydro-8-methyl-4-oxoquinoline-3-carboxylic acid]
toxicity (chromosomal aberration), in words (CHL cells): observed
phototoxicity, in words (Male Hartley guinea pigs): observed
Phototoxicity: number of animals with erythemas/number of animals tested (Male Hartley guinea pigs): 4/5
